Reference: patent US20230146675A1, “PYRIMIDO[5,4-d]PYRIMIDINE DERIVATIVES AS ENT INHIBITORS FOR THE TREATMENT OF CANCERS, AND COMBINATION THEREOF WITH ADENOSINE RECEPTOR ANTAGONISTS” (ITEOS BELGIUM SA, priority 2020, published 2023)
Read-outs that look alike come from different tables or passages of the source.

Experiments:
human ENT1 = target: T1, human ENT1 (Homo sapiens, UniProt Q99808); assay: Uridine transport inhibition assay (3H-uridine uptake, MDCKII-ENT1-LV cells); type: cell-based; details: 3H-uridine (1 μM), 1 min at 25° C.
T1 sequence (Q99808 1-456): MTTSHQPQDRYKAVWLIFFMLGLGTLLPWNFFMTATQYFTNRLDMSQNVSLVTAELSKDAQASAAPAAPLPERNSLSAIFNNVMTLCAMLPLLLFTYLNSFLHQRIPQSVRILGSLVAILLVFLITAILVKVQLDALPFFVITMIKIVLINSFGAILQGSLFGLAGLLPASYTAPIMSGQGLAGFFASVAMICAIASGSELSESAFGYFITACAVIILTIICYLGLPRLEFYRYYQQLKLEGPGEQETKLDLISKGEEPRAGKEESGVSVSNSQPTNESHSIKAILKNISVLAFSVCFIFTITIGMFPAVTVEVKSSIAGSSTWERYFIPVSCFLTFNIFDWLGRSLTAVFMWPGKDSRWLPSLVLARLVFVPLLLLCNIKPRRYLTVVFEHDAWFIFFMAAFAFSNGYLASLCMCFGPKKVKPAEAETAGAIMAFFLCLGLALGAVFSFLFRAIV
Source text: Purpose. The aim of this study was to determine the potency of equilibrative nucleoside transporter 1 (ENT1) inhibitors by measuring ENT1-mediated transport is the cellular uptake assay. The human ENT1 transporter can be stably expressed in Madin-Darby Canine Kidney II (MDCKII) cells via transduction. Uridine is efficiently transported by ENT1 and is used as probe in the assay as 3H-uridine. The interaction is detected as the modulation of the initial rate of 3H-uridine transport by human ENT1 into MDCKII-ENT1-LV cells stably expressing ENT1 uptake transporter.

[1] = target: T2, Human phosphodiesterase-3A (Homo sapiens, UniProt Q14432); assay: PDE3A (h) assay; type: biochemical
T2 construct: host or cells: Sf9 cells
T2 sequence (Q14432 whole entry): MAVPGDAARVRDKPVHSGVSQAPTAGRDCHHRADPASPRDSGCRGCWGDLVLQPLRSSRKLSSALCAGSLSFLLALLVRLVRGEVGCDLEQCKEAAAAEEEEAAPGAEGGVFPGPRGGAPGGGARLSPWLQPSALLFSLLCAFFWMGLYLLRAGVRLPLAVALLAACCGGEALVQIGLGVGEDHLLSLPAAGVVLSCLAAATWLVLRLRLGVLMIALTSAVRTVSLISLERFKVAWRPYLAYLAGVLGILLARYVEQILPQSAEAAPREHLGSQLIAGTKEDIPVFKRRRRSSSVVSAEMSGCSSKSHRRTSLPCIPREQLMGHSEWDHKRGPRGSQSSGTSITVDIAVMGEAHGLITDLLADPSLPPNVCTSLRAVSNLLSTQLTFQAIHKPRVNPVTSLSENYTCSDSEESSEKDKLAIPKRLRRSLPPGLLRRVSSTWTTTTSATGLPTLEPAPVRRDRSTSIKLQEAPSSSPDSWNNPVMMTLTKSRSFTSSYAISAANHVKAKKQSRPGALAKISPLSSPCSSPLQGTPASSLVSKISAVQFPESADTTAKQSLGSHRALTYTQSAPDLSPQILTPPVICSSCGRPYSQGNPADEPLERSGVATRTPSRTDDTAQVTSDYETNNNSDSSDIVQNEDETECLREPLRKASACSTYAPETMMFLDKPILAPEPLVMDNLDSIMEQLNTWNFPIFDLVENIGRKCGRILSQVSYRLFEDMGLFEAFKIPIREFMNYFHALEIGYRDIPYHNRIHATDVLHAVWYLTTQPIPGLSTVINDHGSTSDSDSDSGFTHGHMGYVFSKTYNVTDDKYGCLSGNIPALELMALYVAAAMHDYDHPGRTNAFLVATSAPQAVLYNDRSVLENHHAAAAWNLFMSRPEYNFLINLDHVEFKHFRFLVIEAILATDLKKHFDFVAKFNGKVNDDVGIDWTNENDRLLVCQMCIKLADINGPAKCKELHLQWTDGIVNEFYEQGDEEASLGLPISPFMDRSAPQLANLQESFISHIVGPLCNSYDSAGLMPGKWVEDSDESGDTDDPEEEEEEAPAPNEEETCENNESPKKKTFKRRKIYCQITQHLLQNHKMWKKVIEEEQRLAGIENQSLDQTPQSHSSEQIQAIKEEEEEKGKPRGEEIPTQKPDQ
Procedure: The test compound (compound 72), reference compound or water (control) were added to a buffer containing 40 mM Tris/HCl (pH 7.4) and 8 mM MgCl2, 180 nM cAMP and 0.1 μCi [3H]cAMP. Thereafter, the reaction was initiated by addition of the enzyme (about 0.8 U) and the mixture was incubated for 20 min at 22° C. For basal control measurements, the enzyme was omitted from the reaction mixture. Following incubation SPA beads were added. After 30 min at 22° C. under shaking, the amount of [3H]5′AMP was quantified with a scintillation counter (MicroBeta, Perkin Elmer). The results were expressed as a percent inhibition of the control enzyme activity. The standard inhibitory reference compound was papaverine, which was tested in each experiment at several concentrations to obtain an inhibition curve from which its IC50 value was calculated. • Human phosphodiesterase-3A quantified by measuring the formation of 5′AMP from cAMP using a human recombinant enzyme expressed in Sf9 cells
The test compound (compound 72), reference compound or water (control) were added to a buffer containing 40 mM Tris/HCl (pH 7.4) and 8 mM MgCl2, 450 nM cAMP and 0.25 μCi [3H]cAMP. […] After 30 min at 22° C. under shaking, the amount of [3H]5′AMP was quantified with a scintillation counter (Topcount, Packard). The results were expressed as a percent inhibition of the control enzyme activity. […]

[2] = tested on: stimulated primary human T cells; assay: T cell proliferation assay (rescue of proliferation in presence of 100 uM ATP); type: cell-based
Procedure: Purpose. The aim of this study was to determine the potency of equilibrative nucleoside transporter 1 (ENT1) inhibitors to rescue proliferation by stimulated primary human T cells incubated in the presence of 100 uM Adenosine triphosphate (ATP) with: • Condition A: X-VIVO15 • Condition B: X-VIVO15, 2% Human Serum Albumine (HSA) and 0.1% α-1-Acid Glycoprotein (AAG)
Method. Cryopreserved purified human CD3+ T cells were thawed and washed twice with RPMI1640 medium, UltraGlutamine containing 10% hiFBS.
Cells were suspended in PBS containing 10% hiFBS. Cells were stained with CFSE by adding 2 μM solution in PBS, to get a final 1 μM CFSE solution. Cells were incubated while rotating for 5 minutes. Reaction was stopped by adding PBS with 10% FBS and cells were centrifuged for 5 minutes at 1500 rpm.
Cells were resuspended at 1.6×10^6 cells/mL, either in X-VIVO15 medium or in 4% Human Serum Albumin and 0.2% α-1-Acid Glycoprotein. 50 μL of cell suspension (8×10^4 T cells) was added to wells of sterile round-bottom 96-well plates. Cells were activated by adding 50 μL of anti-CD3 anti-CD28 coated microbeads, suspended either in XVIVO-15 medium or in 4% HSA and 0.2% α-1-Acid Glycoprotein, at a ratio of one microbead per two cells.
Serial dilutions of the ENT1 inhibitors were prepared in X-VIVO15 from 10 mM stock solutions in DMSO, and 50 μL was added to the wells.
ATP powder was diluted in X-VIVO15, and 50 μL of this compound was added to the wells to reach a final assay concentration of 100 μM. Final volume of 200 μL.
The experiments were also performed in 384 well plates—all volumes reduced by a factor of 4 ([…]) with a final volume of 50 μL.
Experiments were performed in duplicate. The cells were placed in a 37° C. humidified tissue culture incubator with 5% CO2 for 72 hours for 96 well plates, 96 hours for 384 well plates. After 72 or 96 hours, proliferation was measured determined by CFSE dilution via flow cytometry.
Results. Compounds of the invention have good ENT1 inhibitory properties.

For COCCN(CCOC)c1nc(N2CCN(C)C(=O)C2)c2nc(N(CCOC)CCOC)nc(N3CCC(OC)CC3)c2n1 [Compound 72, 4-(2,6-bis(bis(2-methoxyethyl)amino)-8-(4-methoxypiperidin-1-yl)pyrimido[5,4-d]pyrimidin-4-yl)-1-methylpiperazin-2-one], the IC50 (human ENT1) was less than 100 nM, the IC50 [1] was greater than 10000 nM and the IC50 ([2]; Condition A: X-VIVO15, read-out: TCell proliferation (Condition A) IC50) was 100 to 500 nM. The IC50 ([2]; Condition B: X-VIVO15, 2% HSA and 0.1% AAG, read-out: TCell proliferation (Condition B) IC50) was 100 to 500 nM.
